# Patent publication US20170030926A1, “MARKER OF NEUROPATHIC GAUCHER'S DISEASE AND METHODS OF USE THEREOF” (Yeda Research and Development Co. Ltd., priority 2014, published 2017)
# How the values were obtained:
# [1] = Therapeutic effect on the brain in Type 3 GD patients on long-term ERT and miglustat; assay type: in vivo, human; details: long-term treatment
# From the text: Spinal fluid samples were collected for biomarker discovery from patients with Type 3 GD and age-matched control subjects.
# [2] = Body weight of mice induced for GD by daily CBE injections; assay type: in vivo, C57BL/6OlaHsd mice
# Method: (§1) C57BL/6OlaHsd mice were used as another model of nGD, in which the disease is induced by intra-peritoneal (IP) injection with 100 mg/Kg/day conduritol b epoxide ([…], calbiochem), an irreversible GCase inhibitor.
# (§2) Correlation of CSF levels of GPNMB and nGD symptoms was further verified using an additional mouse model of GD, where mice are induced for GD by injections of conduritol b epoxide (CBE), a GCase inhibitor. 100 mg/Kg/day of CBE were daily injected into mice starting on day 15 post-natal. On day 30 the mice were divided into three groups: “CBE D15-30” in which CBE injections were ceased on day 30, “CBE D15-30; PBS D31-41” in which CBE injections were ceased on day 30 and the mice continued to receive phosphate buffered saline (PBS) injections until day 41, and “CBE D15-41”, in which CBE injections were continued to day 41. An additional group of mice was injected with PBS during the entire experiment (“PBS”) and served as a control (FIG. 4A). Mice body weight, a simple indicator of disease progression, was measured daily during the experiment and the results are shown in FIG. 4B.
# [3] = system: GPNMB; experiment: GPNMB levels in CSF and brain homogenates of CBE treated mice by ELISA; assay type: in vivo
# Method: as §1
# Mice were anesthetized (100mg/kg Ketamine and 10 mg/Kg xylazine) and CSF was aspired from the Cisterna magna using glass needles. Brain tissues were removed and lysed in ˜6 volumes of Ripa buffer (150 mM sodium chloride, 1.0% Triton X-100, 0.5% sodium deoxycholate, 0.1% SDS, 50 mM Tris, pH 8.0) supplemented with a protease inhibitor mixture (Sigma). Following homogenization, samples were centrifuged at 4500gav for 5 min at 4° C., and the supernatant was collected. Protein level was quantified using the BCA protein assay reagent (Pierce Chemical Co.) GPNMB was measured using the mouse GPNMB ELISA kit (R&D systems) According to manufacturer's protocol.
# as §2
# CSF was aspirated from the Cisterna magna of the mice and GPNMB levels were measured in both CSF (FIG. 4C) and brain homogenates (FIG. 4D) by ELISA. […] Remarkably, GPNMB levels rapidly declined during the recovery period. More specifically, GPNMB levels in the CSF and brain increased upon injection of CBE from day 15-30 and to a higher extent with injection until day 41.
# [4] = compared with mice continuously treated with CBE until day 41
Structure (SMILES),therapeutic effect on the brain [1],"time until body weight began to decrease after beginning CBE injections ([2]; 100 mg/Kg/day IP daily from day 15 post-natal, body weight as indicator of disease progression)","body weight course after CBE injections ceased ([2]; CBE D15-30, PBS D31-41 group)","body weight course with continued CBE injections ([2]; CBE D15-41 group, 100 mg/Kg/day)","GPNMB level in CSF ([3]; CBE treated mice vs PBS control, ELISA)","GPNMB level in brain ([3]; CBE treated mice vs PBS control, brain homogenates, ELISA)","GPNMB level in CSF on day 41 after cessation of CBE on day 30 [3, 4]","GPNMB level in brain on day 41 after cessation of CBE on day 30 [3, 4]"
CCCCN1C[C@H](O)[C@@H](O)[C@H](O)[C@H]1CO [miglustat],neither had any therapeutic effect on the brain,–,–,–,–,–,–,–
"O[C@H]1[C@H](O)[C@@H](O)[C@@H]2O[C@@H]2[C@@H]1O (racemic) [CBE, conduritol b epoxide]",–,10 to 12 days,began to gain weight,continued to decrease until day 41,marked elevation,marked elevation,significantly lower level,significantly lower level
